Test results: ChEMBL document CHEMBL5370539, “Oxazole-4-carboxamide/butylated hydroxytoluene hybrids with GSK-3β inhibitory and neuroprotective activities against Alzheimer's disease” (Eur J Med Chem, 2023)
Activity calls are given as the source filed them. The rule behind the calls is not given here.

Tests used:
PC-12 [1] = assay: Neuroprotective activity against H2O2-induced cytotoxicity in rat PC12 cells assessed as increase in cell viability at 10 uM preincubated for 12 hrs followed by replacement with fresh media and H2O2 stimulation for 12 hrs by MTT assay; type: functional, cell-based
PC-12 [2] = assay: Cytotoxicity against rat PC12 cells assessed as cell viability at 6.25 to 100 uM incubated for 24 hrs by MTT assay; type: toxicity, cell-based; conditions: pc-12, 24 h, dose 6.25-100 µM
[3] = target: Glycogen synthase kinase-3 beta (Homo sapiens, UniProt P49841); assay: Inhibition of human GSK-3beta overexpressed in human HEK293T cells assessed as decrease in Tau phosphorylation at t205 at 0.625 to 10 uM incubated for 24 hrs by Western blot analysis; type: cell-based; conditions: dose 0.625-10 µM
PC-12 [4] = assay: Neuroprotective activity against rat PC12 cells assessed as decrease in H2O2-induced mitochondrial membrane potential level at 10 uM preincubated for 12 hrs followed by replacement with fresh media and H2O2 stimulation for 12 hrs by JC-1 dye based flow cytometry (Rvb=95.3%); type: functional; parameters: scale not given: the % may be the effect or the level left
PC-12 [5] = assay: Neuroprotective activity against rat PC12 cells assessed as decrease in H2O2-induced intracellular Ca2+ level at 2.5 uM preincubated for 12 hrs followed by replacement with fresh media and H2O2 stimulation for 12 hrs by Fluo-3 AM based flow cytometry relative to control; type: functional; parameters: scale not given: the % may be the effect or the level left
PC-12 [6] = assay: Anti-apoptotic activity against H2O2-induced apoptosis in rat PC12 cells assessed as dead cells at 5 uM preincubated for 12 hrs followed by replacement with fresh media and H2O2 stimulation for 12 hrs by Annexin-V/7-AAD staining based flow cytometry (Rvb=4.1%); type: functional
PC-12 [7] = assay: Anti-apoptotic activity against H2O2-induced apoptosis in rat PC12 cells assessed as dead cells at 10 uM preincubated for 12 hrs followed by replacement with fresh media and H2O2 stimulation for 12 hrs by Annexin-V/7-AAD staining based flow cytometry (Rvb=4.1%); type: functional
PC-12 [8] = assay: Anti-apoptotic activity against H2O2-induced apoptosis in rat PC12 cells assessed as late apoptotic cells at 5 uM preincubated for 12 hrs followed by replacement with fresh media and H2O2 stimulation for 12 hrs by Annexin-V/7-AAD staining based flow cytometry (Rvb=2.2 %); type: functional
PC-12 [9] = assay: Anti-apoptotic activity against H2O2-induced apoptosis in rat PC12 cells assessed as late apoptotic cells at 10 uM preincubated for 12 hrs followed by replacement with fresh media and H2O2 stimulation for 12 hrs by Annexin-V/7-AAD staining based flow cytometry (Rvb=2.2 %); type: functional
PC12 [10] = assay: Activation of Nrf2-ARE pathway in rat PC-12 cells assessed as increase in HO-1 expression level at 2.5 to 10 uM incubated for 6 hrs by Western blot analysis; type: cell-based; conditions: filed as activator, dose 2.5-10 µM
PC12 [11] = assay: Activation of Nrf2-ARE pathway in rat PC-12 cells assessed as increase in NQO1 expression level at 2.5 to 10 uM incubated for 12 hrs by Western blot analysis; type: cell-based; conditions: filed as activator, dose 2.5-10 µM
PC12 [12] = assay: Activation of Nrf2-ARE pathway in rat PC-12 cells assessed as increase in Nrf2 expression level in cytoplasm at 10 uM incubated for 3 hrs by Western blot analysis; type: cell-based; conditions: filed as activator
PC12 [13] = assay: Activation of Nrf2-ARE pathway in rat PC-12 cells assessed as increase in Nrf2 expression level in nucleus at 10 uM incubated for 3 hrs by Western blot analysis; type: cell-based; conditions: filed as activator
Mus musculus = assay: Antialzheimer activity in okadaic acid-induced cognitive impairment ICR mouse model assessed as path tracing at 0.08 to 0.24 mg/kg, iv twice at 3days interval before and after okadaic acid stimulation measured upto 14 days by Morris water maze test relative to control; type: functional, organism-based; conditions: dose 0.08-0.24 mg/kg, time <= 14.0 day

Glycogen synthase kinase-3 beta, sequence (P49841 whole entry, looked up): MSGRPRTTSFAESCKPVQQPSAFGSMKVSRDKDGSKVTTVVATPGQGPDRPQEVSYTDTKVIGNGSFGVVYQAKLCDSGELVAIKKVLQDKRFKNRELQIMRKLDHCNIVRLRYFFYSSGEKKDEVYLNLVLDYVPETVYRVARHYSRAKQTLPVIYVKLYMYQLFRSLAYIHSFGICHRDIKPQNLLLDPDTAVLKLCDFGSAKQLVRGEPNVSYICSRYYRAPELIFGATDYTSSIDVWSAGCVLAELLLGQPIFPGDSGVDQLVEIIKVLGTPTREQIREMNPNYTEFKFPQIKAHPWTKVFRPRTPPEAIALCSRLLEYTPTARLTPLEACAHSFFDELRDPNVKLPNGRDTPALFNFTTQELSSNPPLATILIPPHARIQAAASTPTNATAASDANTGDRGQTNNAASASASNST

In the case of COc1ccc(-c2ocnc2C(=O)NCCCc2ccc(NC(=O)/C=C/c3cc(C(C)(C)C)c(O)c(C(C)(C)C)c3)cc2)cc1Cl, the Activity (PC-12 [1]) is reported as “Active”, the Activity (PC-12 [2]) is reported as “Non-Toxic” and the inhibition [3] is reported as “Dose-Dependent Effect”. It also gave an Activity (PC-12 [4]) of 81.3%, an Activity (PC-12 [5]) of 24.5% and an Activity (PC-12 [6]) of 2.5%. The Activity (PC-12 [7]) was 1.3%, the Activity (PC-12 [8]) was 12.9% and the Activity (PC-12 [9]) was 6%. The Activity (PC12 [10]) was “Dose-Dependent Effect”, the Activity (PC12 [11]) was “Dose-Dependent Effect” and the Activity (PC12 [12]) was “Active”. For the same molecule, the Activity (PC12 [13]) was “Active” and the Activity (Mus musculus) was “Active”.
